Tests used:
SSAT transgenic rats = test: Stability of the analogues in the liver of SSAT transgenic rats without or with MDL72527 (hepatic polyamine pools); assay type: in vivo, rat; details: MDL72527 50 mg/kg i.p. twice
Experimental: FIGS. 8A-8D. Hepatic polyamine pools in SSAT transgenic rats treated with methylated polyamine analogues without or with MDL72527. The rats were injected twice with MDL72527 (50 mg/kg i.p.) at 16-h interval. The polyamine analogues (25 mg/kg i.p.) were injected 2 and 8 h later. The animals were sacrificed 24 h after the last MDL72527 injection. There were three to four animals in each group. Put, putrescine; […] Spd, spermidine; Me-Spd, α-methylspermidine; […] The production of transgenic Wistar rats (UKUR30) and mice (UKU181) harboring metallothionein-SSAT fusion gene (Suppola, […]., Porter, C. W., and Jänne, J. (1999) Biochem. […] (2000) Proc. Natl. Acad. Sci. U.S.A. 97, 8290-8295; Lukkarinen, […]., and Alhonen, L. (1997) Stroke 28, 639-645). Partial hepatectomy was carried out according to the original method of Higgins and Anderson (Higgins, G. H., and Anderson, R. M. (1931) Arch. Pathol. 12, 186-202). Treatments before partial hepatectomy and the determination of DNA synthesis were carried out as in ([…]., Suppola, […]., and […]. Biol. Chem. 277, 39867-39872). Transgenic 10 weeks old male rats were injected twice with MDL72527 (50 mg/kg i.p.) at 16-h interval to inactivate PAO according to (Bolkenius, F. N., Bey, P., and Seiler, N. (1985) Biochim. Biophys. […] An aliquot of the homogenates was used for the polyamine assays. The homogenates were centrifuged (at 13 000×g, for 30 min, at 4° C.) and the supernatants were used for the enzyme activity assays. The Institutional Animal Care and Use Committee of the University of Kuopio and by the Provincial Government approved animal experiments. […] Merck (Darmstadt, Germany).

PAO = test: Hepatic PAO activity in SSAT transgenic rats after polyamine analogues without or with MDL72527; assay type: in vivo, rat; details: MDL72527 50 mg/kg i.p. twice, alone or in combination with the analogues
Experimental: FIGS. 9A–9B. Effect of polyamine analogues without or with MDL72527 on hepatic SSAT (FIG. 9A) and PAO (FIG. 9B) activities in SSAT transgenic rats. The rats were treated with the drugs as described in the legend for FIGS. 8A–8D. There were three to four animals in each group.
The production of transgenic Wistar rats (UKUR30) and mice (UKU181) harboring metallothionein-SSAT fusion gene (Suppola, S., Pietilä, M., Parkkinen, J. J., Korhonen, V. P., Alhonen, L., Halmekytö, M., Porter, C. W., and Jänne, J. (1999) Biochem. J. 338, 311–316) has been described earlier (Alhonen, L., Parkkinen, J. J., Keinänen, T., Sinervirta, R., Herzig, K. H., and Jänne, J. (2000) Proc. Natl. Acad. Sci. U.S.A. 97, 8290–8295; Lukkarinen, J., Gröhn, O., Sinervirta, R., Järvinen, A., Kauppinen, R. A., Jänne, J., and Alhonen, L. (1997) Stroke 28, 639–645). Partial hepatectomy was carried out according to the original method of Higgins and Anderson (Higgins, G. H., and Anderson, R. M. (1931) Arch. Pathol. 12, 186–202). […]
PAO activity was measured to verify the effectiveness of MDL72527 treatment and to determine whether the analogues have any effect on its activity. […]

C=C=CCNCCCCNCC=C=C [MDL72527, reference compound]
hepatic putrescine and N^1-acetylspermidine pools (SSAT transgenic rats): greatly reduced putrescine content and increased the pool of N^1-acetylspermidine
hepatic PAO activity (PAO): virtually completely inhibited PAO activity

Source: US7202280B2, “Methods for the treatment and prevention of pancreatitis and for induction of liver regeneration” (priority 2002, dated 2007)
